According to ChEMBL document CHEMBL6134788, “Development of naphthalimide hydrazide derivatives as potent antibacterial agents against carbapenem-resistant A. baumannii” (RSC Med Chem, 2024):
≈ marks a conversion by molar mass, not a printed value. Positions of bridges follow the written chain, without caps; N, C: chain ends. Non-standard residues stand in square brackets, D forms with d. Residues, ends and D or L forms follow the SMILES beside them. *: point of attachment. X1 = CC[C@H](C)CCCCC(=O)*; Dab = NCC[C@H](N)C(=O)O

Tests used:
[1] = tested on: Escherichia coli; test: Antibacterial activity against Escherichia coli ATCC 25922 assessed as inhibition of bacterial growth incubated for 16 to 18 hrs by CLSI protocol based method; type: functional; settings: time 16-18 hrs, read-out: MIC100
[2] = tested on: Staphylococcus aureus; test: Antibacterial activity against Staphylococcus aureus ATCC 29213 assessed as inhibition of bacterial growth incubated for 16 to 18 hrs by CLSI protocol based method; type: functional; settings: time 16-18 hrs, read-out: MIC100
[3] = tested on: Klebsiella pneumoniae; test: Antibacterial activity against Klebsiella pneumoniae BAA 1705 assessed as inhibition of bacterial growth incubated for 16 to 18 hrs by CLSI protocol based method; type: functional; settings: time 16-18 hrs, read-out: MIC100
[4] = tested on: Acinetobacter baumannii; test: Antibacterial activity against carbapenem-resistant Acinetobacter baumannii BAA 1605 assessed as inhibition of bacterial growth incubated for 16 to 18 hrs by CLSI protocol based method; type: functional; settings: time 16-18 hrs, read-out: MIC100
[5] = tested on: Pseudomonas aeruginosa; test: Antibacterial activity against Pseudomonas aeruginosa ATCC 27853 assessed as inhibition of bacterial growth incubated for 16 to 18 hrs by CLSI protocol based method; type: functional; settings: time 16-18 hrs, read-out: MIC100
[6] = Cytotoxicity against African green monkey Vero cells assessed as reduction in cell viability incubated for 72 hrs by MTT assay; type: toxicity, cell-based; settings: chlorocebus sabaeus
[7] = Selectivity index, ratio of CC50 for cytotoxicity against African green monkey VERO cells to MIC for antibacterial activity against carbapenem-resistant Acinetobacter baumannii BAA 1605 assessed as inhibition of bacterial growth; type: toxicity, cell-based; settings: read-out: Selectivity Index
[8] = tested on: Acinetobacter baumannii; test: Antibacterial activity against multi-drug resistant Acinetobacter baumannii H72721 assessed as inhibition of bacterial growth incubated for 16 to 18 hrs by CLSI protocol based method; type: functional; settings: time 16-18 hrs, read-out: MIC100
[9] = tested on: Acinetobacter baumannii; test: Antibacterial activity against multi-drug resistant Acinetobacter baumannii clinical isolate 1 assessed as inhibition of bacterial growth incubated for 16 to 18 hrs by CLSI protocol based method; type: functional; settings: time 16-18 hrs, read-out: MIC100
[10] = tested on: Acinetobacter baumannii; test: Antibacterial activity against multi-drug resistant Acinetobacter baumannii clinical isolate 2 assessed as inhibition of bacterial growth incubated for 16 to 18 hrs by CLSI protocol based method; type: functional; settings: time 16-18 hrs, read-out: MIC100
[11] = tested on: Acinetobacter baumannii; test: Antibacterial activity against multi-drug resistant Acinetobacter baumannii clinical isolate 3 assessed as inhibition of bacterial growth incubated for 16 to 18 hrs by CLSI protocol based method; type: functional; settings: time 16-18 hrs, read-out: MIC100
[12] = tested on: Acinetobacter baumannii; test: Antibacterial activity against multi-drug resistant Acinetobacter baumannii clinical isolate 4 assessed as inhibition of bacterial growth incubated for 16 to 18 hrs by CLSI protocol based method; type: functional; settings: time 16-18 hrs, read-out: MIC100
[13] = tested on: Acinetobacter baumannii; test: Antibacterial activity against multi-drug resistant Acinetobacter baumannii clinical isolate 5 assessed as inhibition of bacterial growth incubated for 16 to 18 hrs by CLSI protocol based method; type: functional; settings: time 16-18 hrs, read-out: MIC100
[14] = tested on: Acinetobacter baumannii; test: Antibacterial activity against multi-drug resistant Acinetobacter baumannii clinical isolate 6 assessed as inhibition of bacterial growth incubated for 16 to 18 hrs by CLSI protocol based method; type: functional; settings: time 16-18 hrs, read-out: MIC100
[15] = tested on: Acinetobacter baumannii; test: Antibacterial activity against multi-drug resistant Acinetobacter baumannii clinical isolate 7 assessed as inhibition of bacterial growth incubated for 16 to 18 hrs by CLSI protocol based method; type: functional; settings: time 16-18 hrs, read-out: MIC100
[16] = tested on: Acinetobacter baumannii; test: Antibacterial activity against multi-drug resistant Acinetobacter baumannii clinical isolate 8 assessed as inhibition of bacterial growth incubated for 16 to 18 hrs by CLSI protocol based method; type: functional; settings: time 16-18 hrs, read-out: MIC100
[17] = tested on: Acinetobacter baumannii; test: Antibacterial activity against multi-drug resistant Acinetobacter baumannii clinical isolate 9 assessed as inhibition of bacterial growth incubated for 16 to 18 hrs by CLSI protocol based method; type: functional; settings: time 16-18 hrs, read-out: MIC100
[18] = tested on: Acinetobacter baumannii; test: Antibacterial activity against multi-drug resistant Acinetobacter baumannii clinical isolate 10 assessed as inhibition of bacterial growth incubated for 16 to 18 hrs by CLSI protocol based method; type: functional; settings: time 16-18 hrs, read-out: MIC100
[19] = tested on: Acinetobacter baumannii; test: Antibacterial activity against multi-drug resistant Acinetobacter baumannii clinical isolate 11 assessed as inhibition of bacterial growth incubated for 16 to 18 hrs by CLSI protocol based method; type: functional; settings: time 16-18 hrs, read-out: MIC100
[20] = tested on: Acinetobacter baumannii; test: Antibacterial activity against multi-drug resistant Acinetobacter baumannii clinical isolate 12 assessed as inhibition of bacterial growth incubated for 16 to 18 hrs by CLSI protocol based method; type: functional; settings: time 16-18 hrs, read-out: MIC100
[21] = tested on: Acinetobacter baumannii; test: Antibacterial activity against multi-drug resistant Acinetobacter baumannii NR-17777 assessed as inhibition of bacterial growth incubated for 16 to 18 hrs by CLSI protocol based method; type: functional; settings: time 16-18 hrs, read-out: MIC100
[22] = tested on: Acinetobacter baumannii; test: Antibacterial activity against multi-drug resistant Acinetobacter baumannii 5-032 assessed as inhibition of bacterial growth incubated for 16 to 18 hrs by CLSI protocol based method; type: functional; settings: time 16-18 hrs, read-out: MIC100
[23] = tested on: Acinetobacter baumannii; test: Antibacterial activity against multi-drug resistant Acinetobacter baumannii 5-109 assessed as inhibition of bacterial growth incubated for 16 to 18 hrs by CLSI protocol based method; type: functional; settings: time 16-18 hrs, read-out: MIC100
[24] = tested on: Acinetobacter baumannii; test: Antibacterial activity against multi-drug resistant Acinetobacter baumannii 5-143 assessed as inhibition of bacterial growth incubated for 16 to 18 hrs by CLSI protocol based method; type: functional; settings: time 16-18 hrs, read-out: MIC100
[25] = tested on: Acinetobacter baumannii; test: Antibacterial activity against multi-drug resistant Acinetobacter baumannii 5-189 assessed as inhibition of bacterial growth incubated for 16 to 18 hrs by CLSI protocol based method; type: functional; settings: time 16-18 hrs, read-out: MIC100
[26] = tested on: Acinetobacter baumannii; test: Antibacterial activity against multi-drug resistant Acinetobacter baumannii BC-5 assessed as inhibition of bacterial growth incubated for 16 to 18 hrs by CLSI protocol based method; type: functional; settings: time 16-18 hrs, read-out: MIC100
[27] = tested on: Acinetobacter baumannii; test: Antibacterial activity against multi-drug resistant Acinetobacter baumannii Naval-17 assessed as inhibition of bacterial growth incubated for 16 to 18 hrs by CLSI protocol based method; type: functional; settings: time 16-18 hrs, read-out: MIC100
[28] = tested on: Acinetobacter baumannii; test: Antibacterial activity against multi-drug resistant Acinetobacter baumannii Naval-18 assessed as inhibition of bacterial growth incubated for 16 to 18 hrs by CLSI protocol based method; type: functional; settings: time 16-18 hrs, read-out: MIC100
[29] = tested on: Acinetobacter baumannii; test: Antibacterial activity against multi-drug resistant Acinetobacter baumannii Naval-81 assessed as inhibition of bacterial growth incubated for 16 to 18 hrs by CLSI protocol based method; type: functional; settings: time 16-18 hrs, read-out: MIC100
[30] = tested on: Acinetobacter baumannii; test: Antibacterial activity against multi-drug resistant Acinetobacter baumannii WL-136 assessed as inhibition of bacterial growth incubated for 16 to 18 hrs by CLSI protocol based method; type: functional; settings: time 16-18 hrs, read-out: MIC100
[31] = tested on: Acinetobacter baumannii; test: Antibacterial activity against multi-drug resistant Acinetobacter baumannii WL-487 assessed as inhibition of bacterial growth incubated for 16 to 18 hrs by CLSI protocol based method; type: functional; settings: time 16-18 hrs, read-out: MIC100
[32] = tested on: Acinetobacter baumannii; test: Antibacterial activity against Acinetobacter baumannii ATCC 17978 assessed as inhibition of bacterial growth incubated for 16 to 18 hrs by CLSI protocol based method; type: functional; settings: time 16-18 hrs, read-out: MIC100
[33] = tested on: Acinetobacter baumannii; test: Antibacterial activity against Acinetobacter baumannii assessed as inhibition of bacterial growth by CLSI protocol based assay; type: functional

Row | Compound | MIC [4] | MIC [8] | MIC [9] | MIC [10] | MIC [11] | MIC [12] | MIC [13] | MIC [14] | MIC [15] | MIC [16] | MIC [17] | MIC [18] | MIC [19] | MIC [20] | MIC [21] | MIC [22] | MIC [23] | MIC [24] | MIC [25] | MIC [26] | also measured
1 | O=C(CCN1C(=O)c2cccc3cccc(c23)C1=O)NNc1ccc(F)cc1 | 1 µg/mL (≈ 2.65 µM) | 2 µg/mL (≈ 5.3 µM) | 2 µg/mL (≈ 5.3 µM) | 2 µg/mL (≈ 5.3 µM) | 0.5 µg/mL (≈ 1.32 µM) | 2 µg/mL (≈ 5.3 µM) | 4 µg/mL (≈ 10.6 µM) | 4 µg/mL (≈ 10.6 µM) | 2 µg/mL (≈ 5.3 µM) | 2 µg/mL (≈ 5.3 µM) | 2 µg/mL (≈ 5.3 µM) | 2 µg/mL (≈ 5.3 µM) | 2 µg/mL (≈ 5.3 µM) | 2 µg/mL (≈ 5.3 µM) | 4 µg/mL (≈ 10.6 µM) | 4 µg/mL (≈ 10.6 µM) | 4 µg/mL (≈ 10.6 µM) | 2 µg/mL (≈ 5.3 µM) | 4 µg/mL (≈ 10.6 µM) | 1 µg/mL (≈ 2.65 µM) | MIC [1]: > 64 µg/mL; MIC [2]: > 64 µg/mL; MIC [3]: > 64 µg/mL; MIC [5]: > 64 µg/mL; CC50 at 72 h [6]: 80 µg/mL (≈ 212 µM); selectivity ratio [7]: 80; MIC [27]: 2 µg/mL (≈ 5.3 µM); MIC [28]: 2 µg/mL (≈ 5.3 µM); MIC [29]: 2 µg/mL (≈ 5.3 µM); MIC [30]: 2 µg/mL (≈ 5.3 µM); MIC [31]: 1 µg/mL (≈ 2.65 µM); MIC [32]: 1 µg/mL (≈ 2.65 µM)
2 | CC(C)CCCCC(=O)N[C@@H](CCN)C(=O)N[C@H](C(=O)N[C@@H](CCN)C(=O)N[C@H]1CCNC(=O)[C@H]([C@@H](C)O)NC(=O)[C@H](CCN)NC(=O)[C@H](CCN)NC(=O)[C@H](CC(C)C)NC(=O)[C@@H](Cc2ccccc2)NC(=O)[C@H](CCN)NC1=O)[C@@H](C)O.CC[C@H](C)CCCCC(=O)N[C@@H](CCN)C(=O)N[C@H](C(=O)N[C@@H](CCN)C(=O)N[C@H]1CCNC(=O)[C@H]([C@@H](C)O)NC(=O)[C@H](CCN)NC(=O)[C@H](CCN)NC(=O)[C@H](CC(C)C)NC(=O)[C@@H](Cc2ccccc2)NC(=O)[C@H](CCN)NC1=O)[C@@H](C)O (X1-[Dab]T[Dab][Dab][Dab][dF]L[Dab][Dab]T; lactam 4-C) | 0.25 µg/mL | 0.25 µg/mL | 0.25 µg/mL | 0.25 µg/mL | 0.25 µg/mL | 0.25 µg/mL | 0.25 µg/mL | 0.25 µg/mL | 0.5 µg/mL | 0.5 µg/mL | 0.5 µg/mL | 0.25 µg/mL | 0.25 µg/mL | 0.25 µg/mL | 0.25 µg/mL | 0.125 µg/mL | 0.25 µg/mL | 0.25 µg/mL | 0.25 µg/mL | 0.25 µg/mL | MIC [27]: 0.25 µg/mL; MIC [28]: 0.25 µg/mL; MIC [29]: 0.125 µg/mL; MIC [30]: 0.25 µg/mL; MIC [31]: 0.5 µg/mL; MIC [32]: 0.25 µg/mL
3 | CN1C(=O)/C(=C/NNc2ccc(C#N)cc2)SC1=S |  |  |  |  |  |  |  |  |  |  |  |  |  |  |  |  |  |  |  |  | MIC [33]: 16 µg/mL (≈ 55.1 µM)
